What was measured:
[1] = target: T1, Endothelin receptor type B (Homo sapiens, UniProt P24530); assay: Inhibitory activity against I-labeled ET-1 binding to Endothelin B receptor
T1 sequence (P24530 whole entry): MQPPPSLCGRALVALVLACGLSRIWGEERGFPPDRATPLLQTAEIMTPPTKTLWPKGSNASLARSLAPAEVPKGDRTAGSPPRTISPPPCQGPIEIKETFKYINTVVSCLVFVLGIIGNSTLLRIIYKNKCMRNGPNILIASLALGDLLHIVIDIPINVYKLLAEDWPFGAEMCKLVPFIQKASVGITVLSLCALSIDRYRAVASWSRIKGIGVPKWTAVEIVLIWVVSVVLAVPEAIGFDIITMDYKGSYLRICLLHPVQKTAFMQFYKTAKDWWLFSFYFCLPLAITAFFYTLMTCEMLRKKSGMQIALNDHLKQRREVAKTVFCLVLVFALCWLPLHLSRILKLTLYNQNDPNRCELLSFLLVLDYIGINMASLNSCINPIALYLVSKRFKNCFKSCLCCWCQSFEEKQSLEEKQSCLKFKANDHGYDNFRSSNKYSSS

[2] = target: Endothelin receptor, ET-A/ET-B (Homo sapiens) (UniProt P24530+P25101); assay: Selectivity was calculated as the ratio of IC50 of Endothelin B receptor / IC50 of Endothelin A receptor; assay type: protein assay
Endothelin-1 receptor = target: T2, Endothelin-1 receptor (Homo sapiens, UniProt P25101); assay: Inhibitory activity against I-labeled ET-1 binding to Endothelin A receptor
T2 sequence (P25101 whole entry): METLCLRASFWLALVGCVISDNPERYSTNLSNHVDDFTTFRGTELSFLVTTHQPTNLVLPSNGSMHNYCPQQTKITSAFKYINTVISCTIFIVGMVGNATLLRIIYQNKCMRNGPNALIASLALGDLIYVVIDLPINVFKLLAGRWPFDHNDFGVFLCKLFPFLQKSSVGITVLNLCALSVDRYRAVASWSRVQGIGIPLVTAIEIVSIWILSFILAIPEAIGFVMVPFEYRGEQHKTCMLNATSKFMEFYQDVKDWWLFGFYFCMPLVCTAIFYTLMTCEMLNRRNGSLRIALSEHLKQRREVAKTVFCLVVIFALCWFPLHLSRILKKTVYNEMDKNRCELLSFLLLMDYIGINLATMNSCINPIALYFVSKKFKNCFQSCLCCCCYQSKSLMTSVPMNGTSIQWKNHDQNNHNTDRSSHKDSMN

| SMILES | IC50 [1] [nM] | Ratio [2] | IC50 (Endothelin-1 receptor) [nM] |
| --- | --- | --- | --- |
| COc1ccc([C@@H]2c3nc(C)ccc3[C@H](c3ccc4c(c3)OCO4)[C@H]2C(=O)O)cc1 | 100 | 18 | 5.7 |
| CCCCc1ccc2c(n1)[C@@H](c1ccc(OC)cc1)[C@H](C(=O)O)[C@H]2c1ccc2c(c1)OCO2 | 11 | 52 | 0.21 |
| CCOCc1ccc2c(n1)[C@@H](c1ccc(OC)cc1)[C@H](C(=O)O)C2c1ccc2c(c1)OCO2 (single isomer, unassigned) | 140 | 270 | 0.51 |
| CCNCc1ccc2c(n1)[C@@H](c1ccc(OC)cc1)[C@H](C(=O)O)C2c1ccc2c(c1)OCO2 (single isomer, unassigned) | 940 | 130 | 7 |
| CCCSc1ccc2c(n1)[C@@H](c1ccc(OC)cc1)[C@H](C(=O)O)C2c1ccc2c(c1)OCO2 (single isomer, unassigned) | 53 | 6.5 | 8.2 |
| COc1ccc([C@@H]2c3nc(N(C)C(C)C)ccc3C(c3ccc4c(c3)OCO4)[C@H]2C(=O)O)cc1 (single isomer, unassigned) | 14 | 4.4 | 3.2 |
| COc1ccc([C@@H]2c3nc(CC(C)C)ccc3[C@H](c3ccc4c(c3)OCO4)[C@H]2C(=O)O)cc1 | 8.4 | 26 | 0.32 |
| COc1ccc([C@@H]2c3nc(C4CC4)ccc3[C@H](c3ccc4c(c3)OCO4)[C@H]2C(=O)O)cc1 | 63 | 39 | 1.6 |
| CCCOc1ccc2c(n1)[C@@H](c1ccc(OC)cc1)[C@H](C(=O)O)C2c1ccc2c(c1)OCO2 (single isomer, unassigned) | 65 | 71 | 0.92 |
| CCCNc1ccc2c(n1)[C@@H](c1ccc(OC)cc1)[C@H](C(=O)O)C2c1ccc2c(c1)OCO2 (single isomer, unassigned) | 63 | 520 | 0.12 |
| COc1ccc([C@@H]2c3nc(-c4ccccc4)ccc3C(c3ccc4c(c3)OCO4)[C@H]2C(=O)O)cc1 (single isomer, unassigned) | 130 | 8.7 | 15 |
| COc1ccc([C@@H]2c3nc(CCCO)ccc3C(c3ccc4c(c3)OCO4)[C@H]2C(=O)O)cc1 (single isomer, unassigned) | 190 | 350 | 0.55 |
| C=CCCc1ccc2c(n1)[C@@H](c1ccc(OC)cc1)[C@H](C(=O)O)[C@H]2c1ccc2c(c1)OCO2 | 14 | 70 | 0.2 |
| COc1ccc([C@@H]2c3nc(NC(C)C)ccc3C(c3ccc4c(c3)OCO4)[C@H]2C(=O)O)cc1 (single isomer, unassigned) | 42 | 420 | 0.1 |
| COc1ccc([C@@H]2c3nc(N4CCCC4)ccc3C(c3ccc4c(c3)OCO4)[C@H]2C(=O)O)cc1 (single isomer, unassigned) | 21 | 9.5 | 2.2 |
| COc1ccc([C@@H]2c3ncccc3[C@H](c3ccc4c(c3)OCO4)[C@H]2C(=O)O)cc1 | 410 | 170 | 2.4 |
| CCCCCc1ccc2c(n1)[C@@H](c1ccc(OC)cc1)[C@H](C(=O)O)[C@H]2c1ccc2c(c1)OCO2 | 9.1 | 4.8 | 1.9 |
| COc1ccc([C@@H]2c3nc(CCC(=O)O)ccc3C(c3ccc4c(c3)OCO4)[C@H]2C(=O)O)cc1 (single isomer, unassigned) | 530 | 3.5 | 150 |
| CCCc1ccc2c(n1)[C@@H](c1ccc(OC)cc1)[C@H](C(=O)O)[C@H]2c1ccc2c(c1)OCO2 | 30 | 81 | 0.37 |
| CCc1ccc2c(n1)[C@@H](c1ccc(OC)cc1)[C@H](C(=O)O)[C@H]2c1ccc2c(c1)OCO2 | 87 | 19 | 4.5 |

— ChEMBL document CHEMBL1134926, “Structure-Activity relationships of 2-substituted 5,7-Diarylcyclopenteno[1,2-b]pyridine-6-carboxylic acids as a novel class of endothelin receptor antagonists” (Bioorg Med Chem Lett, 2002)
